Here are results for 22 molecules from US8470812B2, “Substituted benzo-pyrimido-tetrazolo-diazepine compounds” (ArQule, Inc., priority 2009, dated 2013).

SMILES strings stand for the structures. Structures can show the parent of a compound that is named as a salt.

The test system of data set [1] is DLD-1 cancer cells. Put plainly: MTS assay, cell growth inhibition. Format: cell-based. Particulars: DLD-1 cells, 72 h incubation; test concentration not given. The method, then:
(§1) Cells were maintained at 37° C., 5% CO2 in DMEM media supplemented with 1% fetal bovine serum, penicillin/streptomycin and fungizone (Invitrogen). Cells were seeded into 96-well tissue culture plates at 3000 per well and cultured at 37° C. for 18 hours. Test compounds were dissolved and diluted to 300× in DMSO then diluted 1:40 in DMEM. Cells were incubated with test compounds for 72 hours followed by incubation with tetrazolium compound (3-(4,5-dimethylthiazol-2-yl)-5-(3-carboxymethoxyphenyl)-2-(4-sulfophenyl)-2H-tetrazolium, inner salt; MTS) and the electron coupling reagent, phenazine methosulfate (PMS) for 4 hours. […] The ability of compounds to inhibit cell growth in this assay is correlated with the reduction of dehydrogenase enzyme activity found in metabolically active cells. The measurement of the absorbance of the formazan was assessed using a Victor (Perkin Elmer) microplate reader at 492 nm. The calculated IC50 value is the concentration of the test compound that causes a 50% decrease in the absorbance. Selected compounds have been tested in DLD-1 and MDA-MB-231 cancer cells.

Data set [2] has as its system MDA-MB-231 cancer cells. Put plainly: MTS assay, cell growth inhibition. Format: cell-based. The following applies: MDA-MB-231 cells, 72 h incubation; test concentration not given. On the procedure: as §1
Data set [3] deals with CaMK2γ (Homo sapiens, UniProt Q13555). Nature of the data set: CaMKII kinase activity, mobility shift assay (MSA). It counts as biochemical. The following applies: 10 μM compound; ATP 25, GS peptide 1 uM; read-out: CaMK2γ inh. @ 10 μM (%). The method, then:
(§2) CAMKII and CDK7 activity was assayed using a mobility shift assay (MSA). Test inhibitors and controls (staurosporine) were prepared at 4× the desired final concentration. Test compound (5.0 μL), 4× substrate/ATP/metal solution (5.0 μL), and 2× kinase (10 μL) were added to each well of a reaction plate and incubated for 1 hr at room temperature. The assay components were diluted in assay buffer (20 mM HEPES pH 7.5, 0.01% Triton X-100, 2 mM DTT). To terminate the reaction, 60 μL of termination buffer (QuickScout Screening Assist MSA, Carna Biosciences) was added to each well. The reaction mixture was applied to the LabChip3000 system (Caliper Life Sciences) and the product and substrate peptide peaks were separated and quantified.

Data set [4] concerns the target CaMK2α (Homo sapiens, UniProt Q9UQM7). Nature of the data set: CaMKII kinase activity, mobility shift assay (MSA). It counts as biochemical. The following applies: 10 μM compound; ATP 50, GS peptide 1 uM; read-out: CaMK2α inh. @ 10 μM (%). The method, then:
as §2

Data set [5] addresses CaMK2β (Homo sapiens, UniProt Q13554). Put plainly: CaMKII kinase activity, mobility shift assay (MSA). Format: biochemical. Particulars: 10 μM compound; ATP 25, GS peptide 1 uM; read-out: CaMK2β inh. @ 10 μM (%). The method, then: as §2
In data set [6] the target is CaMK2δ (Homo sapiens, UniProt Q13557). Put plainly: CaMKII kinase activity, mobility shift assay (MSA). Format: biochemical. The following applies: 10 μM compound; ATP 5, GS peptide 1 uM; read-out: CaMK2δ inh. @ 10 μM (%). The method, then:
as §2

Take `CN1CCN(c2ncc3c(n2)N(Cc2ccc(F)c(F)c2)c2ccccc2-n2nnnc2-3)CC1` [Compound 14, 9-(3,4-difluorobenzyl)-11-(4-methylpiperazin-1-yl)-9H-pyrimido[5,4-c]tetrazolo[1,5-a][1,5]benzodiazepine]: the “DLD-1, MTS, 72 h (% Inhibition)” value in data set [1] turned out to be 49%. Besides, in data set [2], the “MDA-MB-231, MTS, 72 h (% Inhibition)” value was 58%. Moreover, the inhibition at 10 µM in data set [3] was 80%; in data set [4], 96%; in data set [5], 88%; in data set [6], 96%.
For the molecule `CC(C)(C)OC(=O)NC1CCCN(c2ncc3c(n2)N(Cc2ccc(F)c(F)c2)c2ccccc2-n2nnnc2-3)C1` (stereo not drawn) [Compound 21, tert-butyl {1-[9-(3,4-difluorobenzyl)-9H-pyrimido[5,4-c]tetrazolo[1,5-a][1,5]benzodiazepin-11-yl]piperidin-3-yl}carbamate], the “DLD-1, MTS, 72 h (% Inhibition)” value in data set [1] turned out to be 97%. The “MDA-MB-231, MTS, 72 h (% Inhibition)” value in data set [2] stood at 97%.
With `Clc1ccccc1CNc1ncc2c(n1)Nc1ccccc1-n1nnnc1-2` [Compound 48, N-(2-chlorobenzyl)-9H-pyrimido[5,4-c]tetrazolo[1,5-a][1,5]benzodiazepin-11-amine], the “DLD-1, MTS, 72 h (% Inhibition)” value in data set [1] is 97%. The “MDA-MB-231, MTS, 72 h (% Inhibition)” value in data set [2] is 51%.
As for `c1ccc2c(c1)Nc1nc(NCCc3ccncc3)ncc1-c1nnnn1-2` [Compound 40, N-(2-pyridin-4-ylethyl)-9H-pyrimido[5,4-c]tetrazolo[1,5-a][1,5]benzodiazepin-11-amine], the “DLD-1, MTS, 72 h (% Inhibition)” value in data set [1] is listed as 98%. Moreover, the “MDA-MB-231, MTS, 72 h (% Inhibition)” value in data set [2] was 65%.
On to `CCCN(C)c1ncc2c(n1)Nc1ccccc1-n1nnnc1-2` [Compound 104, N-methyl-N-propyl-9H-pyrimido[5,4-c]tetrazolo[1,5-a][1,5]benzodiazepin-11-amine], for which the “DLD-1, MTS, 72 h (% Inhibition)” value in data set [1] is on record as 97%. Besides, the “MDA-MB-231, MTS, 72 h (% Inhibition)” value in data set [2] was determined as 99%.
On the same counts, the results for `c1ccc2c(c1)Nc1nc(NC3CCCC3)ncc1-c1nnnn1-2` [Compound 45, N-cyclopentyl-9H-pyrimido[5,4-c]tetrazolo[1,5-a][1,5]benzodiazepin-11-amine] are 95% and 76%.
For `Fc1ccccc1CNc1ncc2c(n1)Nc1ccccc1-n1nnnc1-2` [Compound 88, N-(2-fluorobenzyl)-9H-pyrimido[5,4-c]tetrazolo[1,5-a][1,5]benzodiazepin-11-amine] the same measures were 96% and 41%.
As for `COc1ccc(CNc2ncc3c(n2)Nc2ccccc2-n2nnnc2-3)cc1OC` [Compound 57, N-(3,4-dimethoxybenzyl)-9H-pyrimido[5,4-c]tetrazolo[1,5-a][1,5]benzodiazepin-11-amine], in data set [1], the “DLD-1, MTS, 72 h (% Inhibition)” value came to 97%. Besides, the “MDA-MB-231, MTS, 72 h (% Inhibition)” value in data set [2] stood at 39%.
For the molecule `Clc1ccc(CNc2ncc3c(n2)Nc2ccccc2-n2nnnc2-3)cc1` [Compound 58, N-(4-chlorobenzyl)-9H-pyrimido[5,4-c]tetrazolo[1,5-a][1,5]benzodiazepin-11-amine], the “DLD-1, MTS, 72 h (% Inhibition)” value in data set [1] stood at 97%. Besides, the “MDA-MB-231, MTS, 72 h (% Inhibition)” value in data set [2] is on record as 98%.
As to `c1ccc2c(c1)CCCC2Nc1ncc2c(n1)Nc1ccccc1-n1nnnc1-2` (stereo not drawn) [Compound 77, N-(1,2,3,4-tetrahydronaphthalen-1-yl)-9H-pyrimido[5,4-c]tetrazolo[1,5-a][1,5]benzodiazepin-11-amine], the “DLD-1, MTS, 72 h (% Inhibition)” value in data set [1] is on record as 97%. Further, the “MDA-MB-231, MTS, 72 h (% Inhibition)” value in data set [2] is reported as 86%.
Consider `CC(Nc1ncc2c(n1)Nc1ccccc1-n1nnnc1-2)c1ccccc1` (stereo not drawn) [Compound 51, N-(1-phenylethyl)-9H-pyrimido[5,4-c]tetrazolo[1,5-a][1,5]benzodiazepin-11-amine], for which the “DLD-1, MTS, 72 h (% Inhibition)” value in data set [1] is 96%. Also, in data set [2], the “MDA-MB-231, MTS, 72 h (% Inhibition)” value is 98%.
Turning to `Fc1ccc(CN2c3ccccc3-n3nnnc3-c3cnc(NCc4cccnc4)nc32)cc1F` [Compound 16, 9-(3,4-difluorobenzyl)-N-(pyridin-3-ylmethyl)-9H-pyrimido[5,4-c]tetrazolo[1,5-a][1,5]benzodiazepin-11-amine], in data set [1], the “DLD-1, MTS, 72 h (% Inhibition)” value amounted to 38%. The “MDA-MB-231, MTS, 72 h (% Inhibition)” value in data set [2] worked out at 30%. Besides, the inhibition at 10 µM in data set [3] was 11%; in data set [4] it was 67%; in data set [5], 41%; in data set [6], 65%.
In the case of `COc1ccc(OC)c(CNc2ncc3c(n2)Nc2ccccc2-n2nnnc2-3)c1` [Compound 103, N-(2,5-dimethoxybenzyl)-9H-pyrimido[5,4-c]tetrazolo[1,5-a][1,5]benzodiazepin-11-amine], the “DLD-1, MTS, 72 h (% Inhibition)” value in data set [1] was determined as 97%. Further, the “MDA-MB-231, MTS, 72 h (% Inhibition)” value in data set [2] worked out at 97%.
Regarding `Fc1ccc(CN2c3ccccc3-n3nnnc3-c3cnc(N4CCNCC4)nc32)cc1F` [Compound 11, 9-(3,4-difluorobenzyl)-11-piperazin-1-yl-9H-pyrimido[5,4-c]tetrazolo[1,5-a][1,5]benzodiazepine], in data set [1], the “DLD-1, MTS, 72 h (% Inhibition)” value is listed as 97%. The “MDA-MB-231, MTS, 72 h (% Inhibition)” value in data set [2] was 97%.
`CN1CCN(c2ncc3c(n2)N(Cc2ccc(F)c(F)c2)c2ccccc2-n2nnnc2-3)CC1` (as salt: HCl) [Compound 14, 9-(3,4-difluorobenzyl)-11-(4-methylpiperazin-1-yl)-9H-pyrimido[5,4-c]tetrazolo[1,5-a][1,5]benzodiazepine] had a melting point of 180 to 191 °C.
Take `CC(Nc1ncc2c(n1)Nc1ccccc1-n1nnnc1-2)c1ccc(F)cc1` (stereo not drawn) [Compound 33, N-[1-(4-fluorophenyl)ethyl]-9H-pyrimido[5,4-c]tetrazolo[1,5-a][1,5]benzodiazepin-11-amine]: the “DLD-1, MTS, 72 h (% Inhibition)” value in data set [1] was 82%. Moreover, the “MDA-MB-231, MTS, 72 h (% Inhibition)” value in data set [2] amounted to 42%.
In the case of `COc1cc(CNc2ncc3c(n2)Nc2ccccc2-n2nnnc2-3)cc(OC)c1` [Compound 24, N-(3,5-dimethoxybenzyl)-9H-pyrimido[5,4-c]tetrazolo[1,5-a][1,5]benzodiazepin-11-amine], the “DLD-1, MTS, 72 h (% Inhibition)” value in data set [1] was 95%. For the same molecule, the “MDA-MB-231, MTS, 72 h (% Inhibition)” value in data set [2] was found to be 33%.
For the molecule `CCN1CCN(c2ncc3c(n2)Nc2ccccc2-n2nnnc2-3)CC1` [Compound 43, 11-(4-ethylpiperazin-1-yl)-9H-pyrimido[5,4-c]tetrazolo[1,5-a][1,5]benzodiazepine], in data set [1], the “DLD-1, MTS, 72 h (% Inhibition)” value amounted to 32%. Further, the “MDA-MB-231, MTS, 72 h (% Inhibition)” value in data set [2] is 90%.
On to `Fc1ccc(F)c(CNc2ncc3c(n2)Nc2ccccc2-n2nnnc2-3)c1` [Compound 59, N-(2,5-difluorobenzyl)-9H-pyrimido[5,4-c]tetrazolo[1,5-a][1,5]benzodiazepin-11-amine], for which the “DLD-1, MTS, 72 h (% Inhibition)” value in data set [1] stood at 97%. In addition, in data set [2], the “MDA-MB-231, MTS, 72 h (% Inhibition)” value was determined as 71%.
With `CC(C)(C)OC(=O)N1CCN(c2ncc3c(n2)N(Cc2ccc(F)c(F)c2)c2ccccc2-n2nnnc2-3)CC1` [Compound 22, tert-butyl 4-[9-(3,4-difluorobenzyl)-9H-pyrimido[5,4-c]tetrazolo[1,5-a][1,5]benzodiazepin-11-yl]piperazine-1-carboxylate], the “DLD-1, MTS, 72 h (% Inhibition)” value in data set [1] is given as 95%. In addition, the “MDA-MB-231, MTS, 72 h (% Inhibition)” value in data set [2] was 93%.
For the molecule `COc1cc(CNc2ncc3c(n2)Nc2ccccc2-n2nnnc2-3)cc(OC)c1OC` [Compound 72, N-(3,4,5-trimethoxybenzyl)-9H-pyrimido[5,4-c]tetrazolo[1,5-a][1,5]benzodiazepin-11-amine], the “DLD-1, MTS, 72 h (% Inhibition)” value in data set [1] is given as 97%. Moreover, in data set [2], the “MDA-MB-231, MTS, 72 h (% Inhibition)” value worked out at 78%.
Take `Fc1ccc(CN2c3ccccc3-n3nnnc3-c3cnc(N4CCOCC4)nc32)cc1F` [Compound 13, 9-(3,4-difluorobenzyl)-11-morpholin-4-yl-9H-pyrimido[5,4-c]tetrazolo[1,5-a][1,5]benzodiazepine]: the “DLD-1, MTS, 72 h (% Inhibition)” value in data set [1] is on record as 97%. In data set [2], the “MDA-MB-231, MTS, 72 h (% Inhibition)” value is on record as 98%.

A word on the melting point: it is the temperature of the solid-liquid transition.
